In article PMC7461116, “Synthesis, Anticonvulsant and Antinociceptive Activity of New Hybrid Compounds: Derivatives of 3-(3-Methylthiophen-2-yl)-pyrrolidine-2,5-dione” (International Journal of Molecular Sciences, 2020):
Where a name gives a salt, the structure may show the parent alone.

Assays:
[1] = system: 6 Hz psychomotor seizures; experiment: 6 Hz (32 mA) psychomotor seizure test; format: in vivo, mice; details: Mus musculus, 32 mA; for responders at 100 mg/kg: mice, ip, 0.5 h, read-out: 6 Hz: number of mice protected/number of mice tested (converted)
Excerpt: Psychomotor seizures were induced via corneal stimulation (6 Hz, 32 mA, 0.2 ms rectangular pulse width, 3 s duration) using a constant-current device (ECT Unit 57800, Ugo Basile, Italy). A drop of 1% solution of lidocaine hydrochloride was applied to the mouse corneas before stimulation to provide local anesthesia and ensure optimal current conductivity. After the electrical stimulation, mice were gently released and observed for the presence or absence of seizure activity, being characterized by immobility associated with rearing, forelimb clonus, twitching of the vibrissae, stun, and Straub-tail. Lack of the above symptoms or their cessation within 10 s from the stimulation was considered as absence of seizure activity. The initial anticonvulsant screening of the tested compounds was performed at a fixed dose of 100 mg/kg (four mice per group). Then ED50 was calculated for active compounds as described above.

[2] = system: motor impairment on rotarod; experiment: Rotarod test (acute neurotoxicity, NT); format: in vivo; details: ip, 100 mg/kg, 0.5 h
Experimental: In this test mice were trained to balance on an accelerating rotarod that rotated at 10 rotations per minute (Rotarod apparatus, May Commat RR0711, Turkey; rod diameter: 3 cm). During the training session, the animals were placed on a rotating rod for 3 min with an unlimited number of trials. Proper experiment was conducted 24 h after the training trial. On the test day, trained mice were intraperitoneally pretreated with the test compound at a dose of 100 mg/kg and just before the MES test were tested on the rotarod. Neurotoxicity was indicated by the inability of the animal to maintain equilibration on the rod for 1 min. […] Each group consisted of six animals.

[3] = system: maximal electroshock seizures; experiment: Maximal electroshock seizure (MES) test; format: in vivo, mice; details: Mus musculus; mice, ip, 100 mg/kg, 0.5 h; read-out: MES: number of mice protected/number of mice tested (converted)
Experimental: The MES test was performed as previously described. Stimuli (25 mA, 0.2 s, 50 Hz) were generated by a constant current stimulator (Rodent shocker, Type 221, Hugo Sachs Elektronik, Germany) and delivered with the use of auricular electrodes. During the stimulation, each mouse was restrained manually, and immediately after the stimulation gently released for observation. The endpoint was the tonic extension of the hind limbs. Mice not displaying hindlimb tonic extension were considered to be protected from seizure. The initial anticonvulsant screening of the tested compounds was performed at a fixed dose of 100 mg/kg (four mice per group). […] To evaluate the ED50, at least three groups of animals were injected with various doses of tested compounds. Each group consisted of six animals.

[4] = system: PTZ-induced clonic seizures; experiment: Subcutaneous pentylenetetrazole (scPTZ) seizure test; format: in vivo; details: mice, 100 mg/kg
Experimental: Clonic convulsions were induced by the subcutaneous (sc) administration of PTZ at a dose of 100 mg/kg. After PTZ injection, the mice were placed separately and observed during the next 30 min for the occurrence of clonic seizures. Clonic seizures were defined as clonus of the whole body lasting more than 3 s, with an accompanying loss of righting reflex. The latency to first clonus, the number of seizure episodes, and mortality rate were noted and compared with vehicle-treated and drug-treated groups. The absence of clonic convulsions within the observed time period was interpreted as the compound’s ability to protect against PTZ-induced seizures.

Hep G2 cells = experiment: Hepatotoxicity, PrestoBlue viability assay; format: cell-based, human; details: 1–100 μM, 24 h
Experimental: Hepatotoxicity of tested compounds was assessed in PrestoBlue (Thermo Fisher Scientific, Waltham, MA, USA) Experiments on microplate reader (SpectraMax® iD3, Molecular Devices, San Jose, CA, USA) using human hepatocellular carcinoma cells (Hep G2) ATCC® […]. The cells were cultured in standard conditions (37 °C, 5% CO2), in Dulbecco’s Modified Eagle’s Medium-high glucose, (DMEM, Gibco, Thermo Fisher Scientific, Waltham, MA, USA) supplemented with 10% fetal bovine serum (Thermo Fisher Scientific, Waltham, MA, USA), with added 100 IU/mL penicillin (Sigma Aldrich, Steinheim, Germany) and 100 µg/mL streptomycin (Sigma Aldrich). PrestoBlue reagent is a resazurin-based solution that functions as a cell viability indicator. Metabolically active cells are capable of reducing the PrestoBlue reagent, with the colorimetric changes used as an indicator to quantify the viability of cells in culture. This change can be determined by measuring the fluorescence. After 24 h of incubation with the compounds PrestoBlue reagent was added to wells of a microplate. After 20 min of incubation at 37 °C, the fluorescence intensity (EX 530; EM 580 nm) was measured in a plate reader. Viability values were calculated as a percentage of live cells with respect to the control sample (DMSO). The negative control was medium without cells. Astemizole was used as a reference substance.

[5] = system: latency time to pain reaction; experiment: Hot plate test; format: in vivo; details: mice, 5 mg/kg, p < 0.001
Experimental: The hot plate test was carried out based on the Eddy and Leimbach (1953) method. In this test, the apparatus was equipped with an electrically heated surface with a temperature controller that maintains surface temperature to a set point. Herein, the temperature was set at 55 °C. The animals were treated ip either with the test compounds, or vehicle 30 min before placing the animal on a hot plate apparatus. Latency time to pain reaction, i.e., the time until the animal licked its back paws or jumped was recorded by means of the stopwatch.

Row | SMILES | melting point | responders at 100 mg/kg [1] | NT: number of mice with motor impairment/number of mice tested [2] | responders at 100 mg/kg [3] | also measured
1 | Cc1ccsc1C1CC(=O)N(CCCN2CCN(c3ccc(F)cc3)CC2)C1=O (racemic) (as salt: hydrochloride) [Compound 5, (R,S)-1-(3-(4-(4-Fluorophenyl)piperazin-1-yl)propyl)-3-(3-methylthiophen-2-yl)pyrrolidine-2,5-dione hydrochloride] | 160 to 162 °C |  |  |  | 
2 | Cc1ccsc1C1CC(=O)N(CCCN2CCN(c3cccc(C(F)(F)F)c3)CC2)C1=O (racemic) (as salt: hydrochloride) [Compound 6, (R,S)-3-(3-Methylthiophen-2-yl)-1-(3-(4-(3-(trifluoromethyl)phenyl)piperazin-1-yl)propyl)pyrrolidine-2,5-dione hydrochloride] | 183 to 185 °C |  |  |  | 
3 | Cc1ccsc1C1CC(=O)N(CCCN2CCN(c3cccc(Cl)c3)CC2)C1=O (racemic) (as salt: hydrochloride) [Compound 7, (R,S)-1-(3-(4-(3-Chlorophenyl)piperazin-1-yl)propyl)-3-(3-methylthiophen-2-yl)pyrrolidine-2,5-dione hydrochloride] | 181.5 to 183.5 °C |  |  |  | 
4 | Cc1ccsc1C1CC(=O)N(CCCN2CCN(c3ccc(Cl)cc3)CC2)C1=O (racemic) (as salt: hydrochloride) [Compound 8, (R,S)-1-(3-(4-(4-Chlorophenyl)piperazin-1-yl)propyl)-3-(3-methylthiophen-2-yl)pyrrolidine-2,5-dione hydrochloride] | 68 to 70 °C |  |  |  | 
5 | Cc1ccsc1C1CC(=O)N(CCCN2CCN(c3ccc(Cl)c(Cl)c3)CC2)C1=O (racemic) (as salt: hydrochloride) [Compound 9, (R,S)-1-(3-(4-(3,4-Dichlorophenyl)piperazin-1-yl)propyl)-3-(3-methylthiophen-2-yl)pyrrolidine-2,5-dione hydrochloride] | 101 to 103 °C |  |  |  | 
6 | Cc1ccsc1C1CC(=O)N(CCCN2CCN(c3ccc(F)cc3)CC2)C1=O (racemic) [Compound 5, (R,S)-1-(3-(4-(4-Fluorophenyl)piperazin-1-yl)propyl)-3-(3-methylthiophen-2-yl)pyrrolidine-2,5-dione hydrochloride] |  | 0% | 4/4 | 0% | 
7 | Cc1ccsc1C1CC(=O)N(CCCN2CCN(c3cccc(Cl)c3)CC2)C1=O (racemic) [Compound 7, (R,S)-1-(3-(4-(3-Chlorophenyl)piperazin-1-yl)propyl)-3-(3-methylthiophen-2-yl)pyrrolidine-2,5-dione hydrochloride] |  | 0% | 2/4 | 0% | 
8 | Cc1ccsc1C1CC(=O)N(CCCN2CCN(c3ccc(Cl)cc3)CC2)C1=O (racemic) [Compound 8, (R,S)-1-(3-(4-(4-Chlorophenyl)piperazin-1-yl)propyl)-3-(3-methylthiophen-2-yl)pyrrolidine-2,5-dione hydrochloride] |  | 25% | 0/4 | 25% | 
9 | Cc1ccsc1C1CC(=O)N(CC(=O)N2CCOCC2)C1=O (racemic) [Compound 10, (R,S)-3-(3-Methylthiophen-2-yl)-1-(2-morpholino-2-oxoethyl)pyrrolidine-2,5-dione] | 142 to 144 °C | 25% | 0/4 | 0% | 
10 | Cc1ccsc1C1CC(=O)N(CC(=O)N2CCN(c3ccc(F)cc3)CC2)C1=O (racemic) [Compound 11, (R,S)-1-(2-(4-(4-Fluorophenyl)piperazin-1-yl)-2-oxoethyl)-3-(3-methylthiophen-2-yl)pyrrolidine-2,5-dione] | 165 to 166 °C | 0% | 0/4 | 0% | 
11 | Cc1ccsc1C1CC(=O)N(CC(=O)N2CCN(c3cccc(C(F)(F)F)c3)CC2)C1=O (racemic) [Compound 12, (R,S)-3-(3-Methylthiophen-2-yl)-1-(2-oxo-2-(4-(3-(trifluoromethyl)phenyl)piperazin-1-yl)ethyl)pyrrolidine-2,5-dione] | 135 to 137 °C | 0% | 1/4 | 0% | 
12 | Cc1ccsc1C1CC(=O)N(CC(=O)N2CCN(c3ccccc3Cl)CC2)C1=O (racemic) [Compound 13, (R,S)-1-(2-(4-(2-Chlorophenyl)piperazin-1-yl)-2-oxoethyl)-3-(3-methylthiophen-2-yl)pyrrolidine-2,5-dione] | 141 to 143 °C | 25% | 0/4 | 0% | 
13 | Cc1ccsc1C1CC(=O)N(CC(=O)N2CCN(c3ccc(Cl)cc3)CC2)C1=O (racemic) [Compound 15, (R,S)-1-(2-(4-(4-Chlorophenyl)piperazin-1-yl)-2-oxoethyl)-3-(3-methylthiophen-2-yl)pyrrolidine-2,5-dione] | 179 to 181 °C | 25% | 0/4 | 0% | 
14 | Cc1ccsc1C1CC(=O)N(CC(=O)N2CCN(c3cccc(Cl)c3Cl)CC2)C1=O (racemic) [Compound 16, (R,S)-1-(2-(4-(2,3-Dichlorophenyl)piperazin-1-yl)-2-oxoethyl)-3-(3-methylthiophen-2-yl)pyrrolidine-2,5-dione] | 112 to 113.5 °C | 0% | 0/4 | 0% | 
15 | Cc1ccsc1C1CC(=O)N(CC(=O)N2CCN(c3ccc(Cl)c(Cl)c3)CC2)C1=O (racemic) [Compound 17, (R,S)-1-(2-(4-(3,4-Dichlorophenyl)piperazin-1-yl)-2-oxoethyl)-3-(3-methylthiophen-2-yl)pyrrolidine-2,5-dione] |  | 50% | 0/4 | 0% | scPTZ: effect in words [4]: no significant effect; ED50 ([1]; mice ip, 95% confidence limit in brackets): > 150 mg/kg
16 | COc1ccc(CCN2CCC(Nc3nc4ccccc4n3Cc3ccc(F)cc3)CC2)cc1 [Astemizole, reference compound] |  |  |  |  | Hepatotoxicity in HepG2 cells, in words (Hep G2 cells): inhibits the viability of HepG2 cells in a dose-dependent manner
17 | CN1CC[C@]23c4c5ccc(O)c4O[C@H]2[C@@H](O)C=C[C@H]3[C@H]1C5 [morphine, reference compound] |  |  |  |  | Hot plate: prolongation of latency time to pain reaction [5]: 74%
